Experimental findings from US9265773B2, “Tetracyclic heterocycle compounds and methods of use thereof for the treatment of viral diseases” (priority 2011, dated 2016) are described below.

pIC50: −log10 of the molar value.

For one experiment, the system named is HCV replicon genotype 1a. The experiment in a line: microbe, parasite or virus in culture. The note with it: genotype 1a replicon cells, incubated 96 hours, NS3/4A ELISA readout. Format: cell-based. (Replicon systems follow genome replication, usually without infectious particles.)
In another experiment the test system is HCV replicon genotype 1b. The experiment in a line: microbe, parasite or virus in culture. The format is cell-based. Conditions: genotype 1b replicon cells, incubated 96 hours, NS3/4A ELISA readout.

A word on the pIC50: it is the IC50 on a negative log10 scale, so that one unit is a factor of ten. For the compound `CNC(=O)c1c(-c2ccc(F)cc2)oc2cc(N(CCCF)S(C)(=O)=O)c(-c3ccc4c(n3)-c3cc5c(F)cccc5n3CO4)cc12` [Compound 192], the pIC50 is 8.34 with HCV replicon genotype 1a (Hepatitis C virus, 96 h) and 8.15 with HCV replicon genotype 1b (Hepatitis C virus, 96 h).

Turning to `CNC(=O)c1c(-c2ccc(F)cc2)oc2cc(C(=O)OC)c(-c3ccc4c(n3)-c3cc5c(F)cccc5n3CO4)cc12` [Compound 182], the pIC50 was 7.62 with HCV replicon genotype 1a (Hepatitis C virus, 96 h) and 7.64 in the experiment on HCV replicon genotype 1b (Hepatitis C virus, 96 h).

In the case of `CNC(=O)c1c(-c2ccc(F)cc2)oc2cc(N(C)S(C)(=O)=O)c(-c3ccc4c(n3)-c3cc5cccc(CN(C)C)c5n3CO4)cc12` [Compound 71], the pIC50 is 7.89 with HCV replicon genotype 1a (Hepatitis C virus, 96 h) and 8.35 with HCV replicon genotype 1b (Hepatitis C virus, 96 h).

Take `CNC(=O)c1c(-c2ccc(F)cc2)oc2cc(N(C)S(C)(=O)=O)c(-c3ccc4c(n3)-c3cc5c(F)cccc5n3C(C(=O)NC)O4)cc12` (stereo not shown) [Compound 109]: the pIC50 in the experiment on HCV replicon genotype 1a (Hepatitis C virus, 96 h) is 8.70; with HCV replicon genotype 1b, 8.68.

With `CNC(=O)c1c(-c2ccc(F)cc2)oc2cc(N(C)S(C)(=O)=O)c(-c3ccc4c(n3)-c3cc5c(F)cccc5n3C(CN(C)C)O4)cc12` (stereo not shown) [Compound 121, 5-(6-((dimethylamino)methyl)-11-fluoro-6H-pyrido[2′,3′:5,6][1,3]oxazino[3,4-a]indol-2-yl)-2-(4-fluorophenyl)-N-methyl-6-(N-methylmethylsulfonamido)benzofuran-3-carboxamide], the pIC50 in the experiment on HCV replicon genotype 1a (Hepatitis C virus, 96 h) is 8.52; in the experiment on HCV replicon genotype 1b (Hepatitis C virus, 96 h), 8.12.

For `CNC(=O)c1c(-c2ccc(F)cc2)oc2cc(N(C)S(C)(=O)=O)c(-c3ccc4c(n3)-c3cc5c(F)cccc5n3C(C(C)(C)O)O4)cc12` (stereo not shown) [Compound 101, 5-(11-fluoro-6-(2-hydroxypropan-2-yl)-6H-pyrido[2′,3′,5,6][1,3]oxazino[3,4-a]indol-2-yl)-2-(4-fluorophenyl)-N-methyl-6-(N-methylmethylsulfonamido)benzofuran-3-carboxamide], the pIC50 is 8.24 with HCV replicon genotype 1a (Hepatitis C virus, 96 h) and 8.06 in the experiment with HCV replicon genotype 1b (Hepatitis C virus, 96 h).

In the case of `CNC(=O)c1c(-c2ccc(F)cc2)oc2cc(N(C)S(C)(=O)=O)c(-c3ccc4c(n3)-c3cc5cccc(Cl)c5n3CO4)cc12` [Compound 21], the pIC50 was 7.85 in the experiment with HCV replicon genotype 1a (Hepatitis C virus, 96 h) and 7.89 in the experiment on HCV replicon genotype 1b (Hepatitis C virus, 96 h).

In the case of `CNC(=O)c1c(-c2ccc(F)cc2)oc2cc(N(C)S(C)(=O)=O)c(-c3ccc4c(c3)-c3c(Cl)c5ccccc5n3C(C3CC3)O4)cc12` (stereo not shown) [Compound 131, 5-(12-chloro-6-cyclopropyl-6H-benzo[5,6][1,3]oxazino[3,4-a]indol-2-yl)-2-(4-fluorophenyl)-N-methyl-6-(N-methylmethylsulfonamido)benzofuran-3-carboxamide], the pIC50 with HCV replicon genotype 1a (Hepatitis C virus, 96 h) was 7.10; in the experiment on HCV replicon genotype 1b (Hepatitis C virus, 96 h) it was 7.30.

With `CNC(=O)c1c(-c2ccc(F)cc2)oc2cc(N(CC(F)F)S(C)(=O)=O)c(-c3ccc4c(n3)-c3cc5c(F)cccc5n3CO4)cc12` [Compound 184, 6-(N-(2,2-difluoroethyl)methylsulfonamido)-5-(11-fluoro-6H-pyrido[2′,3′:5,6][1,3]oxazino[3,4-a]indol-2-yl)-2-(4-fluorophenyl)-N-methylbenzofuran-3-carboxamide], the pIC50 is 8.08 with HCV replicon genotype 1a (Hepatitis C virus, 96 h) and 8.19 in the experiment on HCV replicon genotype 1b (Hepatitis C virus, 96 h).

`CNC(=O)c1c(-c2ccc(F)cc2)oc2cc(N(C)S(C)(=O)=O)c(-c3ccc4c(n3)-c3cc5cccnc5n3CO4)cc12` [Compound 48, 2-(4-fluorophenyl)-N-methyl-6-(N-methylmethylsulfonamido)-5-(6H-pyrido[2,3-e]pyrido[3′,2′:4,5]pyrrolo[1,2-c][1,3]oxazin-2-yl)benzofuran-3-carboxamide]: the pIC50 with HCV replicon genotype 1a (Hepatitis C virus, 96 h) is 8.66; in the experiment on HCV replicon genotype 1b (Hepatitis C virus, 96 h), 8.59.

Consider `CNC(=O)c1c(-c2ccc(F)cc2)oc2cc(N(C)S(C)(=O)=O)c(-c3ccc4c(n3)-c3cc5c(F)cccc5n3C(C)O4)cc12` (stereo not shown) [Compound 37], for which the pIC50 in the experiment on HCV replicon genotype 1a (Hepatitis C virus, 96 h) was 8.47; in the experiment with HCV replicon genotype 1b (Hepatitis C virus, 96 h), 8.23.

With `CNC(=O)c1c(-c2ccc(F)cc2)oc2cc(N(C)S(C)(=O)=O)c(-c3ccc4c(n3)-c3cc5c(F)cccc5n3C(COC(=O)[C@@H]3CCCN3C(=O)OC)O4)cc12` (stereo partly shown) [Compound 104], the pIC50 in the experiment on HCV replicon genotype 1a (Hepatitis C virus, 96 h) is 8.62; with HCV replicon genotype 1b (Hepatitis C virus, 96 h), 8.32.

As for `CNC(=O)c1c(-c2ccc(F)cc2)oc2cc(N(C)S(C)(=O)=O)c(-c3ccc4c(n3)-c3cc5c(F)cccc5n3C(CCO)O4)cc12` (stereo not shown) [Compound 99, 5-(11-fluoro-6-(2-hydroxyethyl)-6H-pyrido[2′,3′:5,6][1,3]oxazino[3,4-a]indol-2-yl)-2-(4-fluorophenyl)-N-methyl-6-(N-methylmethylsulfonamido)benzofuran-3-carboxamide], the negative-log IC50 (pIC50) in the experiment with HCV replicon genotype 1a (Hepatitis C virus, 96 h) is 8.72; with HCV replicon genotype 1b (Hepatitis C virus, 96 h) it was 8.34.

On to `CNC(=O)c1c(-c2ccc(F)cc2)oc2cc(N(C)S(C)(=O)=O)c(-c3cc4c(cn3)OCn3c-4cc4c(C#N)cccc43)cc12` [Compound 23], for which the pIC50 with HCV replicon genotype 1a (Hepatitis C virus, 96 h) was 9.05; in the experiment with HCV replicon genotype 1b (Hepatitis C virus, 96 h), 8.92.

For `CNC(=O)c1c(-c2ccc(F)cc2)oc2cc(N(C)S(C)(=O)=O)c(-c3cnc4c(n3)-c3cc5c(F)cccc5n3CO4)cc12` [Compound 25], the pIC50 was 9.00 in the experiment on HCV replicon genotype 1a (Hepatitis C virus, 96 h) and 8.74 in the experiment on HCV replicon genotype 1b (Hepatitis C virus, 96 h).

Regarding `CNC(=O)c1c(-c2ccc(F)cc2)oc2cc(N(C)S(C)(=O)=O)c(-c3ccc4c(n3)-c3nn5ccccc5c3CO4)cc12` [Compound 146, 2-(4-fluorophenyl)-N-methyl-5-(1-aza-6H-chromeno[4′,3′:3,4]pyrazolo[1,5-a]pyridin-2-yl)-6-(N-methylmethylsulfonamido)benzofuran-3-carboxamide], the pIC50 in the experiment with HCV replicon genotype 1a (Hepatitis C virus, 96 h) was 6.65; with HCV replicon genotype 1b (Hepatitis C virus, 96 h), 7.43.

Regarding `CNC(=O)c1c(-c2ccc(F)cc2)oc2cc(N3CCOC3=O)c(-c3ccc4c(n3)-c3cc5cc(F)ccc5n3CO4)cc12` [Compound 174], the pIC50 with HCV replicon genotype 1a (Hepatitis C virus, 96 h) was 7.89; with HCV replicon genotype 1b (Hepatitis C virus, 96 h) it was 8.33.

As to `CNC(=O)c1c(-c2ccc(F)cc2)oc2cc(N(CCN3CCOCC3)S(C)(=O)=O)c(-c3ccc4c(n3)-c3cc5c(F)cccc5n3CO4)cc12` [Compound 211, 5-(11-fluoro-6H-pyrido[2′,3′:5,6][1,3]oxazino[3,4-a]indol-2-yl)-2-(4-fluorophenyl)-N-methyl-6-(N-(2-morpholinoethyl)methylsulfonamido)benzofuran-3-carboxamide], the pIC50 in the experiment on HCV replicon genotype 1a (Hepatitis C virus, 96 h) was 8.19; in the experiment on HCV replicon genotype 1b (Hepatitis C virus, 96 h) it was 7.92.

For the compound `CNC(=O)c1c(-c2ccc(F)cc2)oc2cc(N(C)S(C)(=O)=O)c(-c3nc4c(cc3OC)OCn3c-4cc4ccccc43)cc12` [Compound 29], the negative logarithm of the IC50 (pIC50) with HCV replicon genotype 1a (Hepatitis C virus, 96 h) is 8.32; with HCV replicon genotype 1b (Hepatitis C virus, 96 h) it was 8.10.

In the case of `CNC(=O)c1c(-c2ccc(F)cc2)oc2cc(N(Cc3ccc(B(O)O)cc3)S(C)(=O)=O)c(-c3ccc4c(n3)-c3cc5c(F)cccc5n3CO4)cc12` [Compound 205, (4-((N-(5-(11-fluoro-6H-pyrido[2′,3′:5,6][1,3]oxazino[3,4-a]indol-2-yl)-2-(4-fluorophenyl)-3-(methylcarbamoyl)benzofuran-6-yl)methylsulfonamido)methyl)phenyl) boronic acid], the pIC50 in the experiment on HCV replicon genotype 1a (Hepatitis C virus, 96 h) is 7.85; in the experiment with HCV replicon genotype 1b (Hepatitis C virus, 96 h), 7.82.

For `CNC(=O)c1c(-c2ccc(F)cc2)oc2cc(N(C)S(C)(=O)=O)c(-c3ccc4c(n3)-c3cc5c(C#N)nccc5n3CO4)cc12` [Compound 47], the pIC50 is 8.92 with HCV replicon genotype 1a (Hepatitis C virus, 96 h) and 8.74 in the experiment with HCV replicon genotype 1b (Hepatitis C virus, 96 h).

Take `CCOC(=O)C1Oc2ccc(-c3cc4c(C(=O)NC)c(-c5ccc(F)cc5)oc4cc3N(C)S(C)(=O)=O)nc2-c2cc3c(F)cccc3n21` (stereo not shown) [Compound 113]: the pIC50 with HCV replicon genotype 1a (Hepatitis C virus, 96 h) is 7.49; in the experiment on HCV replicon genotype 1b (Hepatitis C virus, 96 h), 7.54.

On to `CNC(=O)c1c(-c2ccc(F)cc2)oc2cc(N(C)S(C)(=O)=O)c(-c3cnc4c(c3)-c3cc5ccccc5n3CO4)cc12` [Compound 24], for which the pIC50 was 8.52 in the experiment with HCV replicon genotype 1a (Hepatitis C virus, 96 h) and 8.29 with HCV replicon genotype 1b (Hepatitis C virus, 96 h).

As to `CNC(=O)c1c(-c2ccc(F)cc2)oc2cc(N(C)S(C)(=O)=O)c(-c3ccc4c(n3)-c3cc5c(F)cccc5n3C(C)O4)cc12` (stereo not shown) [Compound 38], the pIC50 is 8.49 with HCV replicon genotype 1a and 8.24 in the experiment with HCV replicon genotype 1b.

`CNC(=O)c1c(-c2ccc(F)cc2)oc2cc(N(C)S(C)(=O)=O)c(-c3ccc4c(n3)-c3cc5c(F)cccc5n3C(CNC(=O)[C@@H]3CCCN3C(=O)OC)O4)cc12` (stereo partly drawn) [Compound 124, (2S)-methyl 2-(((11-fluoro-2-(2-(4-fluorophenyl)-3-(methylcarbamoyl)-6-(N-methylmethylsulfonamido)benzofuran-5-yl)-6H-pyrido[2′,3′:5,6][1,3]oxazino[3,4-a]indol-6-yl)methyl)carbamoyl)pyrrolidine-1-carboxylate]: the results for the pIC50 in the experiment with HCV replicon genotype 1a and with HCV replicon genotype 1b were 7.72 and 8.35, respectively.

On to `COC(=O)c1c(-c2ccc(F)cc2)oc2cc(N(C)S(C)(=O)=O)c(-c3ccc4c(n3)-c3cc5c(F)cccc5n3CO4)cc12` [Compound 150, methyl 5-(11-fluoro-6H-pyrido[2′,3′:5,6][1,3]oxazino[3,4-a]indol-2-yl)-2-(4-fluorophenyl)-6-(N-methylmethylsulfonamido)benzofuran-3-carboxylate], for which the pIC50 is 7.42 in the experiment on HCV replicon genotype 1a (Hepatitis C virus, 96 h) and 7.52 with HCV replicon genotype 1b (Hepatitis C virus, 96 h).

For `CNC(=O)c1c(-c2ccc(F)cc2)oc2cc(N3CCCC3=O)c(-c3ccc4c(n3)-c3cc5c(F)cccc5n3CO4)cc12` [Compound 168, 5-(11-fluoro-6H-pyrido[2′,3′:5,6][1,3]oxazino[3,4-a]indol-2-yl)-2-(4-fluorophenyl)-N-methyl-6-(2-oxopyrrolidin-1-yl)benzofuran-3-carboxamide], the pIC50 was 8.48 with HCV replicon genotype 1a (Hepatitis C virus, 96 h) and 8.55 in the experiment on HCV replicon genotype 1b (Hepatitis C virus, 96 h).

On to `CNC(=O)c1c(-c2ccc(F)cc2)oc2cc(N(C)S(C)(=O)=O)c(-c3ccc4c(n3)-c3c(C(O)C(=O)O)c5c(F)cccc5n3CO4)cc12` (stereo not shown) [Compound 207, 2-(11-fluoro-2-(2-(4-fluorophenyl) -3-(methylcarbamoyl)-6-(N-methylmethylsulfonamido)benzofuran-5-yl)-6H-pyrido[2′,3′:5,6][1,3]oxazino[3,4-a]indol-12-yl)-2-hydroxyacetic acid], for which the pIC50 is 8.48 in the experiment with HCV replicon genotype 1a (Hepatitis C virus, 96 h) and 8.68 in the experiment with HCV replicon genotype 1b (Hepatitis C virus, 96 h).

As for `CNC(=O)c1c(-c2ccc(F)cc2)oc2cc(N(CC(F)F)S(C)(=O)=O)c(-c3ncc4c(n3)-c3cc5ccccc5n3CO4)cc12` [Compound 198], the pIC50 with HCV replicon genotype 1a (Hepatitis C virus, 96 h) was 8.70; in the experiment with HCV replicon genotype 1b (Hepatitis C virus, 96 h) it was 8.25.
